Experiments:
NQO1 = biological target: T1, NQO1 (Homo sapiens, UniProt P15559); experiment: Kinobeads competition binding: NQO1; details: target NQO1
T1 construct: endogenous in cells
Text: Supplement 41589_2023_1459_MOESM4_ESM.xlsx, sheet "CATDS matrix" | column: NQO1

ACOX3 = experiment: Kinobeads competition binding: ACOX3; parameters: species or system human; details: target ACOX3;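 further: share of all-target engagement taken by this protein at its own Kdapp concentration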
MAP2K5 = experiment: Kinobeads competition binding: MAP2K5; parameters: species or system human; details: target MAP2K5
NUAK2 = biological target: T2, NUAK2 (Homo sapiens, UniProt Q9H093); experiment: Kinobeads competition binding: NUAK2; details: target NUAK2
T2 construct: a mixture of lysates from five cancer cell lines; endogenous in cells
T2 sequence (Q9H093 1-628): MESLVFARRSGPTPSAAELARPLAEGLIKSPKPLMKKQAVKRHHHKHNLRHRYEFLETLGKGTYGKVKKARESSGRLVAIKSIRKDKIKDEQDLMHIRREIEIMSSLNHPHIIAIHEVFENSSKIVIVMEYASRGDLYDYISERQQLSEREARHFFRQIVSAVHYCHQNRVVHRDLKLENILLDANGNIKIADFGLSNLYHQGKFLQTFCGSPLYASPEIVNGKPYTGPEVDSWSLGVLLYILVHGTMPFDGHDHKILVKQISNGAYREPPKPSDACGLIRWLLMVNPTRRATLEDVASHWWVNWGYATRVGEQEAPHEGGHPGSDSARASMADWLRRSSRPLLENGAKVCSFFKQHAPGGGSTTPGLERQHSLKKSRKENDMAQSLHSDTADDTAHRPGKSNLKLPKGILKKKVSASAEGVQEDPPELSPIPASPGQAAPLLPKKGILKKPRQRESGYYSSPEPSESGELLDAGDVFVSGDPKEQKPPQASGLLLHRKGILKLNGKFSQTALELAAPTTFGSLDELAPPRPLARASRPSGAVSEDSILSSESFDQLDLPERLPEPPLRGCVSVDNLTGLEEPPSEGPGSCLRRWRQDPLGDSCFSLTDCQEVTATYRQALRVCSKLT
Text: Supplement 41589_2023_1459_MOESM4_ESM.xlsx, sheet "CATDS matrix" | column: NUAK2

AXL = biological target: T3, AXL (Homo sapiens, UniProt P30530); experiment: Kinobeads competition binding: AXL; details: target AXL
T3 construct: endogenous in cells
T3 sequence (P30530 26-894): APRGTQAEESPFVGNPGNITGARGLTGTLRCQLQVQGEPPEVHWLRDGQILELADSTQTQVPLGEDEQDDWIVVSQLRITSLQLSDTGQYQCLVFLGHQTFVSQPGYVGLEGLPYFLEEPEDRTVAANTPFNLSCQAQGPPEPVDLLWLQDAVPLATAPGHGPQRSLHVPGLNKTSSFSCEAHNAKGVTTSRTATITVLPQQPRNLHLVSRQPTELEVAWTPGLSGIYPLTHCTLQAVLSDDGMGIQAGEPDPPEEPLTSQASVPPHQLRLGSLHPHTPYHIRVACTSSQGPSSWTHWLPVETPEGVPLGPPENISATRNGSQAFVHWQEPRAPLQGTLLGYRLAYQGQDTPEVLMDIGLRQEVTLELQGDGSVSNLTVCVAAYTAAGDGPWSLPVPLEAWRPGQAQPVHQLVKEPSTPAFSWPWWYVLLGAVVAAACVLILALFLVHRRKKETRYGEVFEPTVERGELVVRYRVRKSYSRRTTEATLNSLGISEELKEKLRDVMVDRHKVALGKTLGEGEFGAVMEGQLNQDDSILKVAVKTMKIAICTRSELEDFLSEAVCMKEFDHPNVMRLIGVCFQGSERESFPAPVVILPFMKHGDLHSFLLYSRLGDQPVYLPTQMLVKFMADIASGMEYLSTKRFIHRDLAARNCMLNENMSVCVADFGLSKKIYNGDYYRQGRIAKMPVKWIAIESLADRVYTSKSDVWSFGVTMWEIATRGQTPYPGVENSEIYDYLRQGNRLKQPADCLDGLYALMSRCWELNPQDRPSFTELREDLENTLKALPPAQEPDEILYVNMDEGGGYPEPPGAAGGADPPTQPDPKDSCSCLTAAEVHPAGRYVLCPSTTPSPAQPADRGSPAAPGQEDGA
Text: Supplement 41589_2023_1459_MOESM4_ESM.xlsx, sheet "CATDS matrix" | column: AXL

EPHB3 = biological target: T4, EPHB3 (Homo sapiens, UniProt P54753); experiment: Kinobeads competition binding: EPHB3; details: target EPHB3
T4 construct: endogenous in cells
T4 sequence (P54753 34-998): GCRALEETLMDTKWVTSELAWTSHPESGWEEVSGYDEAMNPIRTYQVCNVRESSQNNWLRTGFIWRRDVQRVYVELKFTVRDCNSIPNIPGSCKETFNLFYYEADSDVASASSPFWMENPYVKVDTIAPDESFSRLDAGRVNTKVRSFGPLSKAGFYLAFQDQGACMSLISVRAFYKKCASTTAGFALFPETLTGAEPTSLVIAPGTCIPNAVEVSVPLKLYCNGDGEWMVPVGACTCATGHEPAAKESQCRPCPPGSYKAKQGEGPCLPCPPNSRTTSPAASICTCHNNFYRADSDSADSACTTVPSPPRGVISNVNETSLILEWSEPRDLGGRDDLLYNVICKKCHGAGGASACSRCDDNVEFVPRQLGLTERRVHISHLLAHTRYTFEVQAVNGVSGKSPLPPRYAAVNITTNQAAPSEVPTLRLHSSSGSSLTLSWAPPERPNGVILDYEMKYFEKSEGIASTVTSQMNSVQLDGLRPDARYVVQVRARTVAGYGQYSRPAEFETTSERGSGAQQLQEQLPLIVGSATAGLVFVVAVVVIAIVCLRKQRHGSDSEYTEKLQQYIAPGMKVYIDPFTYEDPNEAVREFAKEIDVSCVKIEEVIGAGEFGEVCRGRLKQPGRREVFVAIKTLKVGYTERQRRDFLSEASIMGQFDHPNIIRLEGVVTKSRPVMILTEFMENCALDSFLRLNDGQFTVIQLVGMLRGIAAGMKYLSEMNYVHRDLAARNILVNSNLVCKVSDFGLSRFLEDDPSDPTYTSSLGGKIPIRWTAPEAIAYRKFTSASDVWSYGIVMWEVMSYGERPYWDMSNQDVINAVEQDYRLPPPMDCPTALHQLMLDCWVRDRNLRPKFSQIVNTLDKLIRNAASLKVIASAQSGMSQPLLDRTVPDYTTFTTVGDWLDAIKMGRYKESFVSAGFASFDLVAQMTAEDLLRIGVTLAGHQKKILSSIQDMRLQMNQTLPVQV
Text: Supplement 41589_2023_1459_MOESM4_ESM.xlsx, sheet "CATDS matrix" | column: EPHB3

PI4KB = experiment: Kinobeads competition binding: PI4KB; parameters: species or system human; details: target PI4KB;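 further: selectivity score: engagement of this protein divided by summed engagement of all targets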

Measured: CATDS

Nc1ncnc2[nH]c(-c3ccccc3)nc12 [AH5015_KCGS]
0: all assays above

CCN1CCN(Cc2ccc(Nc3ncc(F)c(-c4cc(F)c5nc(C)n(C(C)C)c5c4)n3)nc2)CC1 [Abemaciclib]
0: all assays above

CN(C)C/C=C/C(=O)Nc1cc2c(Nc3ccc(F)c(Cl)c3)ncnc2cc1O[C@H]1CCOC1 [Afatinib]
not listed: MAP2K5 | PI4KB
0: all other assays above

CCc1cc2c(cc1N1CCC(N3CCOCC3)CC1)C(C)(C)c1[nH]c3cc(C#N)ccc3c1C2=O [Alectinib]
0: all assays above

N#CC1(c2ccc(NC(=O)c3cccnc3NCc3ccncc3)cc2)CCCC1 [Apatinib]
0: all assays above

Source: PMC11062922 (Nature Chemical Biology, 2023)
